The record followed here is patent publication US9988429B2, “Glucagon analogues” (Zealand Pharma A/S, priority 2013, dated 2018).

The term EC50 denotes the concentration that produces a half-maximal response.

In assay [1] the target is T1, human glucagon receptor (Glucagon-R) (Homo sapiens, UniProt P47871).
T1 construct: expressed in transfected cells
Nature of the assay: Glucagon receptor efficacy assay (cAMP AlphaScreen, CHO cells). Particulars: cAMP formation, CHO cells expressing human Glucagon-R; read-out: EC50 hGCGR CHO-K1. Type of assay: cell-based. How it is done: (§1) The mammalian expression vectors encoding the Glucagon-R or the GLP-1-R were transfected into Chinese hamster ovary (CHO) cells by the Attractene method. Stably expressing clones were obtained by Zeocin selection (250 μg/mL) upon limited dilution of cells resistant to the selection pressure. […] One Glucagon-R expressing clone and one GLP-1-R expressing clone were chosen for compound profiling.
(§2) CHO cells expressing the human Glucagon-R, or human GLP-1-R were seeded 24 hours prior to the assay at 30,000 cells per well in 96-well microtiter plates in culture in 100 μl growth medium. On the day of analysis, growth medium was removed and the cells were washed once with 200 μl of assay buffer (Krebs-Ringer-buffer—KRBH). The buffer was removed and the cells were incubated for 15 min at room temperature in 10 μl KRBH (KRBH+10 mM HEPES, 5 mM NaHCO3, 0.1% (V/V) BSA) with 0.1 mM IBMX in deionized water containing increasing concentrations of test peptides. The reaction was stopped by the addition of lysis buffer (0.1% w/v BSA, 5 mM HEPES, 0.3% v/v Tween-20). After cell lysis for 10 min at room temperature, lysates were transferred to 384-well plates and 10 μl of acceptor/donorbead mixture as contained in the AlphaScreen™ cAMP Functional Assay Kit was added. After one hour of incubation at room temperature in the dark, the cAMP content was determined applying the AlphaScreen™ cAMP Functional Assay Kit from Perkin-Elmer according to manufacturer instructions. […] The GLP-1/glucagon ratio is calculated as defined earlier.

In assay [2] the target is T2, human glucagon-like peptide 1 receptor (GLP-1R) (Homo sapiens, UniProt P43220).
T2 construct: expressed in transfected cells
Nature of the assay: GLP-1 receptor efficacy assay (cAMP AlphaScreen, CHO cells). Type of assay: cell-based. Particulars: for Ratio GLP-1/Glucagon: EC50 [GLP-1R] / EC50 [Glucagon-R], human receptors in CHO-K1; for EC50: cAMP formation, CHO cells expressing human GLP-1-R, read-out: EC50 hGLP-1R CHO-K1. As to the method: as §1, §2
(Bead proximity is the source of the signal in Alpha formats.)

For assay [3], the target named is T3, endogenous GLP-1 receptors (Mus musculus, UniProt O35659).
T3 construct: Agonistic activity of the test compounds on endogenous GLP-1 receptors; endogenous in cells
T3 sequence (O35659 22-463): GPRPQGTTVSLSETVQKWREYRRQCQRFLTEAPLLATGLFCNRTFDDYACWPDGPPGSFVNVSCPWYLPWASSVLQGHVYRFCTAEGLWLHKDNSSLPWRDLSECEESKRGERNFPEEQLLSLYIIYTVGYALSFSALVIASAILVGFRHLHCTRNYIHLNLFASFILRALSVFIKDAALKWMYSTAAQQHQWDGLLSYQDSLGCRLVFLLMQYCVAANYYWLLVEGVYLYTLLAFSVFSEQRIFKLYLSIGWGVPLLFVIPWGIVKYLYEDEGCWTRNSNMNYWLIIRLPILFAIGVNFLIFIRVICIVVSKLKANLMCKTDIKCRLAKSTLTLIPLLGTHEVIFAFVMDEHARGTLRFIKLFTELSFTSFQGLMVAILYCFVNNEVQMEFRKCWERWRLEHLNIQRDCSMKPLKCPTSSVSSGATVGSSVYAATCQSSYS
Kind of assay: Agonistic activity on endogenous GLP-1 receptor, cAMP in murine insulinoma cell line. Particulars: intracellular cAMP. Type of assay: cell-based. As to the method: Agonistic activity of the test compounds on endogenous GLP-1 receptors was determined using a murine insulinoma cell line. Intracellular cAMP was used as an indicator of receptor activation.
Cells were cultured for 24 h at a density of 10,000 cells/well in a 384-well plate. Medium was removed and 10 μL KRBH buffer (NaCl 130 mM, KCl 3.6 mM, NaH2PO4 0.5 mM, MgSO4 0.5 mM, CaCl2 1.5 mM) containing test compound or GLP-1 (at increasing concentrations from 0.1 pM to 100 nM) or solvent control (0.1% (v/v) DMSO) was added to the wells for 15 minutes at a temperature of 26° C.
The cellular cAMP content is measured using the AlphaScreen cAMP Functional Assay Kit (Perkin Elmer). Measurement was performed using the Envision (PerkinElmer) according to manufacturer's recommendations.
All measurements were performed in quadruplicate.
The resulting cAMP curves were plotted as absolute cAMP concentrations (nM) over log (test compound concentration) and analyzed using the curve fitting program XLfit.

The target in assay [4] is human glucagon receptor (Glucagon-R) (human, UniProt P47871 26-477). Kind of assay: cell-based or functional assay.
Assay [5] addresses human glucagon-like peptide 1 receptor (GLP-1R) (human, UniProt P43220 24-463). Nature of the assay: cell-based or functional assay.
The target in assay [6] is T4, endogenous GLP-1 receptor of a murine insulinoma cell line (murine, UniProt O35659 22-463).
T4 sequence (looked up): T3 sequence (O35659 22-463)
Kind of assay: cell-based or functional assay.

In assay [7] the target is endogenous glucagon receptor of primary rat hepatocytes (rat, UniProt P30082 27-485). Nature of the assay: cell-based or functional assay.

Starred links: 1 amine or outer side, 2 acyl side, 3 side chain; linkers in the order of their positions; H or OH if unused. Non-standard residues stand in square brackets, D forms with d. Residues, ends and D or L forms follow the SMILES beside them. Groups on a side chain read outwards from the residue. *: point of attachment. γGlu = O=C(O)[C@H](CCC(=O)[*:2])N[*:1]; Palmitoyl = CCCCCCCCCCCCCCCC(=O)*; Ac4c = NC1(C(=O)O)CCC1; Aib = CC(C)(N)C(=O)O

T2 sequence (P43220 24-463): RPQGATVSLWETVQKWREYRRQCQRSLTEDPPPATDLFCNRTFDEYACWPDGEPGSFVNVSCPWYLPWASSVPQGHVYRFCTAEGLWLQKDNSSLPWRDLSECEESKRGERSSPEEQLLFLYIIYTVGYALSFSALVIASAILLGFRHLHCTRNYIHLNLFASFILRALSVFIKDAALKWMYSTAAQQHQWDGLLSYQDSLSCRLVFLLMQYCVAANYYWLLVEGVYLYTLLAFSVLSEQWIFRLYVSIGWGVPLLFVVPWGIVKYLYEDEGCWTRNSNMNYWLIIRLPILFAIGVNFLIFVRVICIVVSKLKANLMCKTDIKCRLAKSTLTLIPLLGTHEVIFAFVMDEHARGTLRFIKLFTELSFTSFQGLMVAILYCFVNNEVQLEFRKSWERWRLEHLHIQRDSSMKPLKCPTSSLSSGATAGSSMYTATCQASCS
T1 sequence (P47871 26-477): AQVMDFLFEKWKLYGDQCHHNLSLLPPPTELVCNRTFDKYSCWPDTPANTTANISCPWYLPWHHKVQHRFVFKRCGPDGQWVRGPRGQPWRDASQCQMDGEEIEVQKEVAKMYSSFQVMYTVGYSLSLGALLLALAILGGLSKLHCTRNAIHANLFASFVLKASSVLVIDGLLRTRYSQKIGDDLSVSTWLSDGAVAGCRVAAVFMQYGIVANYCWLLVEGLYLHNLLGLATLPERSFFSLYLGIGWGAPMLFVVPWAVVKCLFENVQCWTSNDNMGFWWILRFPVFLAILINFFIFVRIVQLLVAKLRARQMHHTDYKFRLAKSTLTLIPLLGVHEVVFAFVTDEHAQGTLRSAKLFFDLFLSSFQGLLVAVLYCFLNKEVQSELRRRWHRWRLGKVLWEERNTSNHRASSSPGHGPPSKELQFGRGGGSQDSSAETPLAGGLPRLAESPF
Chain of endogenous glucagon receptor of primary rat hepatocytes (P30082 27-485): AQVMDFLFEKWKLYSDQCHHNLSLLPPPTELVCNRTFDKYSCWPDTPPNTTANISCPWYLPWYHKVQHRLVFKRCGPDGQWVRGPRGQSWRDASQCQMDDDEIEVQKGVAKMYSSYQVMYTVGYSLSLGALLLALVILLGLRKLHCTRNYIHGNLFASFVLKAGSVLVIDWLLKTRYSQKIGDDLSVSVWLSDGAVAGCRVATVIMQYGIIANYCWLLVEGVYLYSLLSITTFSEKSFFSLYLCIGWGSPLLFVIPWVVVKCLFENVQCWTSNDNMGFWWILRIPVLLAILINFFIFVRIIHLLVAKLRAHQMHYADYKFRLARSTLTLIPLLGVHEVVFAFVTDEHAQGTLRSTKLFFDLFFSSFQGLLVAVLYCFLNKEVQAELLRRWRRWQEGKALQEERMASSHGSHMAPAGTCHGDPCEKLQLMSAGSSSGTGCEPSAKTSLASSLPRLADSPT
Chain of human glucagon receptor (Glucagon-R) (human, UniProt P47871 26-477) (P47871 26-477): as the sequence (P47871 26-477) above

With `CCCCCCCCCCCCCCCC(=O)N[C@@H](CCC(=O)NCCCC[C@H](NC(=O)[C@H](CO)NC(=O)[C@H](CC(=O)O)NC(=O)[C@H](CC(C)C)NC(=O)[C@H](Cc1ccc(O)cc1)NC(=O)[C@H](CCCCN)NC(=O)[C@H](CO)NC(=O)[C@H](Cc1ccc(O)cc1)NC(=O)[C@H](CC(=O)O)NC(=O)[C@H](CO)NC(=O)[C@@H](NC(=O)[C@H](Cc1ccccc1)NC(=O)[C@@H](NC(=O)CNC(=O)[C@H](Cc1c[nH]cn1)NC(=O)[C@H](CO)NC(=O)[C@@H](N)Cc1c[nH]cn1)[C@@H](C)O)[C@@H](C)O)C(=O)N[C@@H](C)C(=O)N[C@@H](C)C(=O)N[C@@H](Cc1c[nH]cn1)C(=O)N[C@@H](CC(=O)O)C(=O)N[C@@H](Cc1ccccc1)C(=O)N[C@H](C(=O)N[C@@H](CCC(=O)O)C(=O)N[C@@H](Cc1c[nH]c2ccccc12)C(=O)N[C@@H](CC(C)C)C(=O)N[C@@H](CC(C)C)C(=O)N[C@@H](CO)C(=O)N[C@@H](C)C(N)=O)C(C)C)C(=O)O` [Compound 5] (H-HSHGTFTSDYSKYLDSK([γGlu-Palmitoyl])AAHDFVEWLLSA-NH2), the EC50 in assay [1] came out at 0.12 nM. In assay [2], the “Ratio GLP-1/Glucagon” value turned out to be 2.25 and the concentration for a half-maximal effect (EC50) is 0.27 nM.

For the molecule `CCCCCCCCCCCCCCCC(=O)N[C@@H](CCC(=O)NCCCC[C@H](NC(=O)[C@H](CCC(=O)O)NC(=O)[C@H](CC(=O)O)NC(=O)[C@H](CC(C)C)NC(=O)[C@H](Cc1ccc(O)cc1)NC(=O)[C@H](CCCCN)NC(=O)[C@H](CO)NC(=O)[C@H](Cc1ccc(O)cc1)NC(=O)[C@H](CC(=O)O)NC(=O)[C@H](CO)NC(=O)[C@@H](NC(=O)[C@H](Cc1ccccc1)NC(=O)[C@@H](NC(=O)CNC(=O)[C@H](Cc1c[nH]cn1)NC(=O)C1(NC(=O)[C@@H](N)Cc2c[nH]cn2)CCC1)[C@@H](C)O)[C@@H](C)O)C(=O)N[C@@H](C)C(=O)N[C@@H](C)C(=O)N[C@@H](CCCCN)C(=O)N[C@@H](CC(=O)O)C(=O)N[C@@H](Cc1ccccc1)C(=O)N[C@H](C(=O)N[C@@H](CCC(=O)O)C(=O)N[C@@H](Cc1c[nH]c2ccccc12)C(=O)N[C@@H](CC(C)C)C(=O)N[C@@H](CCC(=O)O)C(=O)N[C@@H](CO)C(=O)N[C@@H](C)C(N)=O)[C@@H](C)CC)C(=O)O` [Compound 15], the EC50 in assay [1] was determined as 0.1 nM.

For `CCCCCCCCCCCCCCCC(=O)N[C@@H](CCC(=O)NCCCC[C@H](NC(=O)[C@H](CO)NC(=O)[C@H](CC(=O)O)NC(=O)[C@H](CC(C)C)NC(=O)[C@H](Cc1ccc(O)cc1)NC(=O)[C@H](CCCCN)NC(=O)[C@H](CO)NC(=O)[C@H](Cc1ccc(O)cc1)NC(=O)[C@H](CC(=O)O)NC(=O)[C@H](CO)NC(=O)[C@@H](NC(=O)[C@H](Cc1ccccc1)NC(=O)[C@@H](NC(=O)CNC(=O)[C@H](CCC(N)=O)NC(=O)C1(NC(=O)[C@@H](N)Cc2c[nH]cn2)CCC1)[C@@H](C)O)[C@@H](C)O)C(=O)N[C@@H](C)C(=O)N[C@@H](C)C(=O)N[C@@H](Cc1c[nH]cn1)C(=O)N[C@@H](CC(=O)O)C(=O)N[C@@H](Cc1ccccc1)C(=O)N[C@H](C(=O)N[C@@H](CCC(=O)O)C(=O)N[C@@H](Cc1c[nH]c2ccccc12)C(=O)N[C@@H](CC(C)C)C(=O)N[C@@H](CC(C)C)C(=O)N[C@@H](CO)C(=O)N[C@@H](C)C(N)=O)C(C)C)C(=O)O` [Compound 4], the EC50 in assay [1] was found to be 0.12 nM. The “Ratio GLP-1/Glucagon” value in assay [2] stood at 2.59.

As for `CCCCCCCCCCCCCCCC(=O)N[C@@H](CCC(=O)NCCCC[C@H](NC(=O)[C@H](CCC(=O)O)NC(=O)[C@H](CC(=O)O)NC(=O)[C@H](CC(C)C)NC(=O)[C@H](Cc1ccc(O)cc1)NC(=O)[C@H](CCCCN)NC(=O)[C@H](CO)NC(=O)[C@H](Cc1ccc(O)cc1)NC(=O)[C@H](CC(=O)O)NC(=O)[C@H](CO)NC(=O)[C@@H](NC(=O)[C@H](Cc1ccccc1)NC(=O)[C@@H](NC(=O)CNC(=O)[C@H](CCC(N)=O)NC(=O)[C@H](CC)NC(=O)[C@@H](N)Cc1c[nH]cn1)[C@@H](C)O)[C@@H](C)O)C(=O)N[C@@H](C)C(=O)N[C@@H](C)C(=O)N[C@@H](CCCCN)C(=O)N[C@@H](CC(=O)O)C(=O)N[C@@H](Cc1ccccc1)C(=O)N[C@H](C(=O)N[C@@H](CCC(=O)O)C(=O)N[C@@H](Cc1c[nH]c2ccccc12)C(=O)N[C@@H](CC(C)C)C(=O)N[C@@H](CCC(=O)O)C(=O)N[C@@H](CO)C(=O)N[C@@H](C)C(N)=O)[C@@H](C)CC)C(=O)O` [Compound 10], the EC50 was determined as 0.1 nM in assay [1] and 0.27 nM in assay [2]. Besides, the “Ratio GLP-1/Glucagon” value in assay [2] was 2.7.

On to `CCCCCCCCCCCCCCCC(=O)N[C@@H](CCC(=O)NCCCC[C@H](NC(=O)[C@H](CCC(=O)O)NC(=O)[C@H](CC(=O)O)NC(=O)[C@H](CC(C)C)NC(=O)[C@H](Cc1ccc(O)cc1)NC(=O)[C@H](CCCCN)NC(=O)[C@H](CO)NC(=O)[C@H](Cc1ccc(O)cc1)NC(=O)[C@H](CC(=O)O)NC(=O)[C@H](CO)NC(=O)[C@@H](NC(=O)[C@H](Cc1ccccc1)NC(=O)[C@@H](NC(=O)CNC(=O)[C@H](CCC(N)=O)NC(=O)C(C)(C)NC(=O)[C@@H](N)Cc1c[nH]cn1)[C@@H](C)O)[C@@H](C)O)C(=O)N[C@@H](C)C(=O)N[C@@H](C)C(=O)N[C@@H](CCCCN)C(=O)N[C@@H](CC(=O)O)C(=O)N[C@@H](Cc1ccccc1)C(=O)N[C@H](C(=O)N[C@@H](CCC(=O)O)C(=O)N[C@@H](Cc1c[nH]c2ccccc12)C(=O)N[C@@H](CC(C)C)C(=O)N[C@@H](CCC(=O)O)C(=O)N[C@@H](CCC(=O)O)C(=O)N[C@@H](CCC(=O)O)C(N)=O)[C@@H](C)CC)C(=O)O` [Compound 17] (H-H[Aib]QGTFTSDYSKYLDEK([γGlu-Palmitoyl])AAKDFIEWLEEE-NH2), for which, in assay [2], the “Ratio GLP-1/Glucagon” value is reported as 3.38 and the EC50 was determined as 0.27 nM. In assay [3], this molecule displayed a 50% effective concentration (EC50) of 0.21 nM.

B1: Compound 4: H-H-Ac4c-QGTFTSDYSKYLDS-K(Hexadecanoyl-isoGlu)-AAHDFVEWLLSA-NH2 (peptide)
peptide: H-H[Ac4c]QGTFTSDYSKYLDSK([γGlu-Palmitoyl])AAHDFVEWLLSA-NH2
SMILES: CCCCCCCCCCCCCCCC(=O)N[C@@H](CCC(=O)NCCCC[C@H](NC(=O)[C@H](CO)NC(=O)[C@H](CC(=O)O)NC(=O)[C@H](CC(C)C)NC(=O)[C@H](Cc1ccc(O)cc1)NC(=O)[C@H](CCCCN)NC(=O)[C@H](CO)NC(=O)[C@H](Cc1ccc(O)cc1)NC(=O)[C@H](CC(=O)O)NC(=O)[C@H](CO)NC(=O)[C@@H](NC(=O)[C@H](Cc1ccccc1)NC(=O)[C@@H](NC(=O)CNC(=O)[C@H](CCC(N)=O)NC(=O)C1(NC(=O)[C@@H](N)Cc2c[nH]cn2)CCC1)[C@@H](C)O)[C@@H](C)O)C(=O)N[C@@H](C)C(=O)N[C@@H](C)C(=O)N[C@@H](Cc1c[nH]cn1)C(=O)N[C@@H](CC(=O)O)C(=O)N[C@@H](Cc1ccccc1)C(=O)N[C@H](C(=O)N[C@@H](CCC(=O)O)C(=O)N[C@@H](Cc1c[nH]c2ccccc12)C(=O)N[C@@H](CC(C)C)C(=O)N[C@@H](CC(C)C)C(=O)N[C@@H](CO)C(=O)N[C@@H](C)C(N)=O)C(C)C)C(=O)O
For the molecule B1, in assay [4], the “EC50 hGCGR CHO-K1 [nM] (cAMP, AlphaScreen)” value worked out at 0.12 nM. Also, the “EC50 hGLP-1R CHO-K1 [nM] (cAMP, AlphaScreen)” value in assay [5] stood at 0.31 nM. In addition, in assay [6], the “EC50 [nM] (cAMP in murine insulinoma cell line)” value is 0.32 nM. In addition, the “EC50 [nM] (inhibition of glycogen synthesis rate in primary rat hepatocytes)” value in assay [7] is 0.37 nM.
